# Measured values reported in ChEMBL document CHEMBL6087399, “Extended structure-activity relationship studies of the [1,2,5]oxadiazolo[3,4-b]pyrazine-containing colistin adjuvants” (Bioorg Med Chem Lett, 2025).
# Where a SMILES comes first, the peptide text is derived from it.
# What was measured:
# Escherichia coli [1] = assay: Potentiation of colistin-induced antibacterial activity against Escherichia coli AR-0493 assessed as minimum re-sensitizing concentration; format: functional; details: read-out: MEC
# [2] = Cytotoxicity against human HepG2 cells by Cell Titer Glo assay; format: toxicity, cell-based
# Escherichia coli [3] = assay: Antibacterial activity against Escherichia coli AR-0493 by CLSI based susceptibility testing method; format: functional
# [4] = Selectivity index, ratio of GI50 for cytotoxicity against human HepG2 cells to MEC for potentiation of colistin-induced antibacterial activity against Escherichia coli AR-0493 assessed as minimum re-sensitizing concentration; format: toxicity, cell-based; details: read-out: Selectivity Index
# Escherichia coli [5] = assay: Potentiation of colistin-induced antibacterial activity against Escherichia coli AR-0538 harboring mcr-2 gene assessed as colistin MIC at 1 ug/ml; format: functional; details: dose 1 µg/ml
# Klebsiella pneumoniae [6] = assay: Potentiation of colistin-induced antibacterial activity against Klebsiella pneumoniae AR-0497 harboring mcr-1 gene assessed as colistin MIC at 1 ug/ml; format: functional; details: dose 1 µg/ml
# Pseudomonas aeruginosa [7] = assay: Potentiation of colistin-induced antibacterial activity against Pseudomonas aeruginosa AR-0239 assessed as colistin MIC at 1 ug/ml; format: functional; details: dose 1 µg/ml
# Salmonella typhimurium [8] = assay: Potentiation of colistin-induced antibacterial activity against Salmonella typhimurium AR-0635 harboring mcr-4 gene assessed as colistin MIC at 1 ug/ml; format: functional, Salmonella enterica subsp. enterica serovar Typhimurium; details: Salmonella enterica, dose 1 µg/ml
# Escherichia coli [9] = assay: Potentiation of colistin-induced antibacterial activity against Escherichia coli AR-0493 harboring mcr-1 gene assessed as colistin MIC at 1 ug/ml; format: functional; details: dose 1 µg/ml
# Acinetobacter baumannii [10] = assay: Potentiation of colistin-induced antibacterial activity against Acinetobacter baumannii AR-0310 assessed as colistin MIC at 1 ug/ml; format: functional; details: dose 1 µg/ml
# Salmonella typhimurium [11] = assay: Potentiation of colistin-induced antibacterial activity against Salmonella typhimurium AR-0539 harboring mcr-3 gene assessed as colistin MIC at 1 ug/ml; format: functional, Salmonella enterica subsp. enterica serovar Typhimurium; details: Salmonella enterica, dose 1 µg/ml
# Escherichia coli [12] = assay: Synergistic antibacterial activity against Escherichia coli AR-0493 assessed as fractional inhibitory concentration index in presence of colistin by Checkerboard broth microdilution assay; format: functional
# Salmonella typhimurium [13] = assay: Antibacterial activity against Salmonella typhimurium AR-0539 harboring mcr-3 gene; format: functional, Salmonella enterica subsp. enterica serovar Typhimurium; details: Salmonella enterica
# Salmonella typhimurium [14] = assay: Antibacterial activity against Salmonella typhimurium AR-0635 harboring mcr-4 gene; format: functional, Salmonella enterica subsp. enterica serovar Typhimurium; details: Salmonella enterica
# Escherichia coli [15] = assay: Antibacterial activity against Escherichia coli AR-0538 harboring mcr-2 gene; format: functional
# Acinetobacter baumannii [16] = assay: Antibacterial activity against Acinetobacter baumannii AR-0310; format: functional
# Pseudomonas aeruginosa [17] = assay: Antibacterial activity against Pseudomonas aeruginosa AR-0239; format: functional
# Escherichia coli [18] = assay: Antibacterial activity against Escherichia coli AR-0493 harboring mcr-1 gene; format: functional
# Klebsiella pneumoniae [19] = assay: Antibacterial activity against Klebsiella pneumoniae AR-0497 harboring mcr-1 gene; format: functional
compound,measurement,setting,value
CC(C)(C)Nc1nc2nonc2nc1NC(C)(C)C,minimal effective concentration,Escherichia coli [1],8 µg/mL
C1CCC(Nc2nc3nonc3nc2NC2CCCCC2)CC1,minimal effective concentration,Escherichia coli [1],4 µg/mL
CCCNc1nc2nonc2nc1NCCC,minimal effective concentration,Escherichia coli [1],> 16 µg/mL
CCCCNc1nc2nonc2nc1NCCCC,minimal effective concentration,Escherichia coli [1],8 µg/mL
CCCCCCNc1nc2nonc2nc1NCCCCCC,GI50,[2],0.59 µg/mL
same,minimal effective concentration,Escherichia coli [1],0.5 µg/mL
same,MIC,Escherichia coli [3],> 64 µg/mL
same,selectivity ratio,[4],1.2
C1CCC(Nc2nc3nonc3nc2NC2CCCC2)C1,minimal effective concentration,Escherichia coli [1],8 µg/mL
Clc1cccc(Nc2nc3nonc3nc2Nc2cccc(Cl)c2)c1,MIC,Escherichia coli [5],1 µg/mL
same,MIC,Klebsiella pneumoniae [6],1 µg/mL
same,MIC,Pseudomonas aeruginosa [7],1 µg/mL
same,MIC,Salmonella typhimurium [8],1 µg/mL
same,MIC,Escherichia coli [9],1 µg/mL
same,MIC,Acinetobacter baumannii [10],0.25 µg/mL
same,MIC,Salmonella typhimurium [11],1 µg/mL
FC1(F)CC(CNc2nc3nonc3nc2Nc2cccc(Cl)c2)C1,minimal effective concentration,Escherichia coli [1],1 µg/mL
CC(C)CCNc1nc2nonc2nc1NCCC(C)C,minimal effective concentration,Escherichia coli [1],2 µg/mL
Clc1ccc(CNc2nc3nonc3nc2NCc2ccc(Cl)cc2)cc1,fractional inhibitory concentration index (FICI),Escherichia coli [12],0.07
same,MIC,Escherichia coli [5],1 µg/mL
same,MIC,Klebsiella pneumoniae [6],2 µg/mL
same,MIC,Pseudomonas aeruginosa [7],1 µg/mL
same,GI50,[2],4.5 µg/mL
same,MIC,Salmonella typhimurium [8],2 µg/mL
same,MIC,Escherichia coli [9],0.5 µg/mL
same,minimal effective concentration,Escherichia coli [1],0.125 µg/mL
same,MIC,Acinetobacter baumannii [10],0.5 µg/mL
same,MIC,Escherichia coli [3],> 64 µg/mL
same,MIC,Salmonella typhimurium [11],1 µg/mL
same,selectivity ratio,[4],36
Clc1cccc(Nc2nc3nonc3nc2NCCc2c[nH]c3ccc(Cl)cc23)c1,minimal effective concentration,Escherichia coli [1],1 µg/mL
CCCCCCCCCCNc1nc2nonc2nc1Nc1cccc(Cl)c1,minimal effective concentration,Escherichia coli [1],2 µg/mL
CC(C)CNc1nc2nonc2nc1Nc1cccc(Cl)c1,minimal effective concentration,Escherichia coli [1],2 µg/mL
CCCNc1nc2nonc2nc1Nc1cccc(Cl)c1,minimal effective concentration,Escherichia coli [1],1 µg/mL
CCCCCCCCCCCCNc1nc2nonc2nc1Nc1cccc(Cl)c1,minimal effective concentration,Escherichia coli [1],> 16 µg/mL
CCCCCCCCNc1nc2nonc2nc1Nc1cccc(Cl)c1,minimal effective concentration,Escherichia coli [1],1 µg/mL
CNc1nc2nonc2nc1Nc1cccc(Cl)c1,minimal effective concentration,Escherichia coli [1],8 µg/mL
Clc1ccc2[nH]cc(CCNc3nc4nonc4nc3NCCc3c[nH]c4ccc(Cl)cc34)c2c1,minimal effective concentration,Escherichia coli [1],> 16 µg/mL
Clc1cccc(Nc2nc3nonc3nc2NCC2CC2)c1,minimal effective concentration,Escherichia coli [1],1 µg/mL
c1ccc(CCNc2nc3nonc3nc2NCCc2ccccc2)cc1,minimal effective concentration,Escherichia coli [1],2 µg/mL
Clc1cccc(Nc2nc3nonc3nc2NCCc2ccccc2)c1,GI50,[2],0.83 µg/mL
same,minimal effective concentration,Escherichia coli [1],0.5 µg/mL
same,MIC,Escherichia coli [3],> 64 µg/mL
same,selectivity ratio,[4],1.7
Clc1cccc(Nc2nc3nonc3nc2NCCNc2ccc3ccccc3n2)c1,minimal effective concentration,Escherichia coli [1],16 µg/mL
FC(F)(F)c1cccc(CNc2nc3nonc3nc2Nc2cccc(Cl)c2)c1,GI50,[2],5.5 µg/mL
same,minimal effective concentration,Escherichia coli [1],0.25 µg/mL
same,MIC,Escherichia coli [3],> 64 µg/mL
same,selectivity ratio,[4],22
FC(F)CNc1nc2nonc2nc1Nc1cccc(Cl)c1,minimal effective concentration,Escherichia coli [1],2 µg/mL
FC(F)(F)Oc1cccc(CNc2nc3nonc3nc2Nc2cccc(Cl)c2)c1,minimal effective concentration,Escherichia coli [1],1 µg/mL
Clc1cccc(Nc2nc3nonc3nc2NC2CCCCC2)c1,minimal effective concentration,Escherichia coli [1],1 µg/mL
Clc1ccc(CNc2nc3nonc3nc2Nc2cccc(Cl)c2)cc1,GI50,[2],4.9 µg/mL
same,minimal effective concentration,Escherichia coli [1],0.25 µg/mL
same,MIC,Escherichia coli [3],> 64 µg/mL
same,selectivity ratio,[4],19
c1ccc2nc(NCCNc3nc4nonc4nc3NCCNc3ccc4ccccc4n3)ccc2c1,minimal effective concentration,Escherichia coli [1],> 16 µg/mL
Clc1cccc(Nc2nc3nonc3nc2NC2CC2)c1,minimal effective concentration,Escherichia coli [1],1 µg/mL
CCCCCCCCCCNc1nc2nonc2nc1NCCCCCCCCCC,minimal effective concentration,Escherichia coli [1],> 16 µg/mL
CCCCCCNc1nc2nonc2nc1Nc1cccc(Cl)c1,minimal effective concentration,Escherichia coli [1],1 µg/mL
CCCCCCCCCCCCNc1nc2nonc2nc1NCCCCCCCCCCCC,minimal effective concentration,Escherichia coli [1],> 16 µg/mL
Clc1cccc(Nc2nc3nonc3nc2NCC2COC2)c1,minimal effective concentration,Escherichia coli [1],> 16 µg/mL
CCCCCCCNc1nc2nonc2nc1Nc1cccc(Cl)c1,GI50,[2],3.3 µg/mL
same,minimal effective concentration,Escherichia coli [1],0.5 µg/mL
same,MIC,Escherichia coli [3],> 64 µg/mL
same,selectivity ratio,[4],6.6
CCCCNc1nc2nonc2nc1Nc1cccc(Cl)c1,GI50,[2],5.7 µg/mL
same,minimal effective concentration,Escherichia coli [1],0.5 µg/mL
same,MIC,Escherichia coli [3],> 64 µg/mL
same,selectivity ratio,[4],11
Fc1cccc(CNc2nc3nonc3nc2Nc2cccc(Cl)c2)c1,minimal effective concentration,Escherichia coli [1],1 µg/mL
CCCCCCCNc1nc2nonc2nc1NCCCCCCC,GI50,[2],0.65 µg/mL
same,minimal effective concentration,Escherichia coli [1],0.5 µg/mL
same,MIC,Escherichia coli [3],> 64 µg/mL
same,selectivity ratio,[4],1.3
CC(C)(C)OC(=O)N1CC(CNc2nc3nonc3nc2Nc2cccc(Cl)c2)C1,minimal effective concentration,Escherichia coli [1],4 µg/mL
Clc1cccc(CNc2nc3nonc3nc2NCc2cccc(Cl)c2)c1,GI50,[2],1.6 µg/mL
same,minimal effective concentration,Escherichia coli [1],0.5 µg/mL
same,MIC,Escherichia coli [3],> 64 µg/mL
same,selectivity ratio,[4],3.2
CCCCCCCCNc1nc2nonc2nc1NCCCCCCCC,minimal effective concentration,Escherichia coli [1],4 µg/mL
FC(F)(F)c1nc(NCCCNc2nc3nonc3nc2Nc2cccc(Cl)c2)ccc1Cl,fractional inhibitory concentration index (FICI),Escherichia coli [12],0.039
same,MIC,Escherichia coli [5],1 µg/mL
same,MIC,Klebsiella pneumoniae [6],1 µg/mL
same,MIC,Pseudomonas aeruginosa [7],1 µg/mL
same,GI50,[2],8.7 µg/mL
same,MIC,Salmonella typhimurium [8],1 µg/mL
same,MIC,Escherichia coli [9],0.5 µg/mL
same,minimal effective concentration,Escherichia coli [1],0.25 µg/mL
same,MIC,Acinetobacter baumannii [10],0.25 µg/mL
same,MIC,Escherichia coli [3],> 64 µg/mL
same,MIC,Salmonella typhimurium [11],0.5 µg/mL
same,selectivity ratio,[4],35
CCCCCNc1nc2nonc2nc1NCCCCC,minimal effective concentration,Escherichia coli [1],1 µg/mL
Clc1cccc(Nc2nc3nonc3nc2NCC2CCC2)c1,minimal effective concentration,Escherichia coli [1],1 µg/mL
Clc1cccc(Nc2nc3nonc3nc2NC2CCCC2)c1,minimal effective concentration,Escherichia coli [1],1 µg/mL
CC(C)(C)Nc1nc2nonc2nc1Nc1cccc(Cl)c1,minimal effective concentration,Escherichia coli [1],2 µg/mL
FC(F)(F)Oc1cccc(CNc2nc3nonc3nc2NCc2cccc(OC(F)(F)F)c2)c1,GI50,[2],2.3 µg/mL
same,minimal effective concentration,Escherichia coli [1],0.125 µg/mL
same,MIC,Escherichia coli [3],> 64 µg/mL
same,selectivity ratio,[4],18
FC(F)(F)c1cccc(CNc2nc3nonc3nc2NCc2cccc(C(F)(F)F)c2)c1,minimal effective concentration,Escherichia coli [1],> 16 µg/mL
CCCCCNc1nc2nonc2nc1Nc1cccc(Cl)c1,GI50,[2],2.1 µg/mL
same,minimal effective concentration,Escherichia coli [1],0.5 µg/mL
same,MIC,Escherichia coli [3],> 64 µg/mL
same,selectivity ratio,[4],4.3
Fc1cccc(CNc2nc3nonc3nc2NCc2cccc(F)c2)c1,minimal effective concentration,Escherichia coli [1],> 16 µg/mL
FC(F)(F)c1nc(NCCCNc2nc3nonc3nc2NCCCNc2ccc(Cl)c(C(F)(F)F)n2)ccc1Cl,GI50,[2],2.6 µg/mL
same,minimal effective concentration,Escherichia coli [1],0.25 µg/mL
same,MIC,Escherichia coli [3],> 64 µg/mL
same,selectivity ratio,[4],10
Clc1cccc(CNc2nc3nonc3nc2Nc2cccc(Cl)c2)c1,GI50,[2],3.8 µg/mL
same,minimal effective concentration,Escherichia coli [1],0.5 µg/mL
same,MIC,Escherichia coli [3],> 64 µg/mL
same,selectivity ratio,[4],7.7
Nc1nc2nonc2nc1Nc1cccc(Cl)c1,minimal effective concentration,Escherichia coli [1],4 µg/mL
CC(C)CCNc1nc2nonc2nc1Nc1cccc(Cl)c1,minimal effective concentration,Escherichia coli [1],1 µg/mL
Clc1cccc(Nc2nc3nonc3nc2NC2CCC2)c1,minimal effective concentration,Escherichia coli [1],1 µg/mL
"[H][C@@]1([C@@H](C)O)NC(=O)[C@H](CCN)NC(=O)[C@H](CCN)NC(=O)[C@H](CC(C)C)NC(=O)[C@@H](CC(C)C)NC(=O)[C@H](CCN)NC(=O)[C@@H](NC(=O)[C@H](CCN)NC[C@H](NC(=O)[C@H](CCN)NC(=O)CCCCC(C)C)[C@@H](C)O)CCNC1=O.[H][C@@]1([C@@H](C)O)NC(=O)[C@H](CCN)NC(=O)[C@H](CCN)NC(=O)[C@H](CC(C)C)NC(=O)[C@@H](CC(C)C)NC(=O)[C@H](CCN)NC(=O)[C@@H](NC(=O)[C@H](CCN)NC[C@H](NC(=O)[C@H](CCN)NC(=O)CCCCC(C)CC)[C@@H](C)O)CCNC1=O (stereo partly drawn) (HELM PEPTIDE1{[C[C@@H](O)[C@H](CN[C@@H](CCN)C(=O)[*:2])N[*:3]].[Dab].[Dab].[dL].L.[Dab].[Dab].T}|PEPTIDE2{[CCC(C)CCCCC(=O)[*:2]].[Dab]}$PEPTIDE1,PEPTIDE2,1:R3-2:R2|PEPTIDE1,PEPTIDE1,2:R3-8:R2$$$V2.0)",MIC,Salmonella typhimurium [13],8 µg/mL
same,MIC,Salmonella typhimurium [14],16 µg/mL
same,MIC,Escherichia coli [15],8 µg/mL
same,MIC,Acinetobacter baumannii [16],8 µg/mL
same,MIC,Pseudomonas aeruginosa [17],4 µg/mL
same,MIC,Escherichia coli [18],8 µg/mL
same,MIC,Klebsiella pneumoniae [19],16 µg/mL
